# Source: PMC12089418, “Quantifying VMAT2 target occupancy at effective valbenazine doses and comparing to a novel VMAT2 inhibitor: a translational PET study” (Neuropsychopharmacology, 2025)
# Read-outs that look alike come from different tables or passages of the source.
# How the values were obtained:
# [1] = Plasma protein binding by equilibrium dialysis, cynomolgus monkey plasma; assay type: in vitro ADME, cynomolgus monkeys; conditions: both sexes, pooled plasma, read-out: fraction unbound in plasma (fu_p)
# [2] = target: T1, VMAT2 (Rattus norvegicus, UniProt Q01827); test: Rat NBI-98782 PK-%TO study; assay type: in vivo; conditions: Data on file
# T1 construct: from tissue; host or cells: rats dosed in vivo; tissue and read-out method not described
# T1 sequence (Q01827 whole entry): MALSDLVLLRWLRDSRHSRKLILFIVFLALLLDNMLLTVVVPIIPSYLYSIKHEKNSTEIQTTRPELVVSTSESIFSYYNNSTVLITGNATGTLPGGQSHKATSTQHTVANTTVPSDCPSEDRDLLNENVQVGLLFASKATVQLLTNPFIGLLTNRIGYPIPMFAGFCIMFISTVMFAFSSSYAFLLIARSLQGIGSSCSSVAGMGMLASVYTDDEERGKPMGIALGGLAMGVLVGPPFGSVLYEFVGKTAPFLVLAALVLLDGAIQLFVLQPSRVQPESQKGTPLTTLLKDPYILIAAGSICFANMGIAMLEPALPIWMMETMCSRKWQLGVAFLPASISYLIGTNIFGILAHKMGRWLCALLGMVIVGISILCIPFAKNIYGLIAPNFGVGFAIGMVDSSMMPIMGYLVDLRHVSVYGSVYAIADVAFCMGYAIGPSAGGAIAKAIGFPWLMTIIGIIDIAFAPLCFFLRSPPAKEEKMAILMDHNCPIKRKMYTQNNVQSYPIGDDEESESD
# [3] = target: T2, VMAT2 (Macaca fascicularis, UniProt A0A2K5UVB8); set-up: method as in PMID 32122751; conditions: bolus administration; radioligand [+]-α-[11C]dHTBZ; cited from earlier work
# Target sequence in this assay (A0A2K5UVB8 1-517): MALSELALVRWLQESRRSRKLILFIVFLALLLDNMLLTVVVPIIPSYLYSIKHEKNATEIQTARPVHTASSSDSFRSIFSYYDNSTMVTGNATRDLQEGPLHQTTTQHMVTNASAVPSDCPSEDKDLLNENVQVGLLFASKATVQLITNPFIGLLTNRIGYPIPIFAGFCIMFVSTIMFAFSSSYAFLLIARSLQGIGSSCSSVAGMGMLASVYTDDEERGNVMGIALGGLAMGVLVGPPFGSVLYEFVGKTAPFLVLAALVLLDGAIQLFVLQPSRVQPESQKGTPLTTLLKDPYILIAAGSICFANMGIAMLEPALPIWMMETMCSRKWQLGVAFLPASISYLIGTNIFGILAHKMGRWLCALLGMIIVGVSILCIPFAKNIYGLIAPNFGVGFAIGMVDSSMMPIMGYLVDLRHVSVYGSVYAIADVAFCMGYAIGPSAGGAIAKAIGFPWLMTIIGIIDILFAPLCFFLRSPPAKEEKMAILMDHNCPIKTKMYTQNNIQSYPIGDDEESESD
# [4] = test system: VMAT2; conditions: cited from earlier work
# [5] = test system: other targets; set-up: method as in PMID 28776237, PMID 28404690, PMID 29680151; conditions: cited from earlier work
# [6] = test system: TD patients; set-up: method as in PMID 28320223; conditions: 6 weeks, cited from earlier work
# [7] = test system: chorea associated with Huntington’s Disease; set-up: method as in PMID 37210099; conditions: valbenazine 80 mg; cited from earlier work
# [8] = target: T3, VMAT2 (Homo sapiens, UniProt Q05940); test: Estimated human VMAT2 %TO from human PK and NHP PET free EC50; assay type: in vivo; set-up: from tissue; host or cells: brain of healthy male volunteers (caudate, putamen)
# T3 sequence (Q05940 whole entry): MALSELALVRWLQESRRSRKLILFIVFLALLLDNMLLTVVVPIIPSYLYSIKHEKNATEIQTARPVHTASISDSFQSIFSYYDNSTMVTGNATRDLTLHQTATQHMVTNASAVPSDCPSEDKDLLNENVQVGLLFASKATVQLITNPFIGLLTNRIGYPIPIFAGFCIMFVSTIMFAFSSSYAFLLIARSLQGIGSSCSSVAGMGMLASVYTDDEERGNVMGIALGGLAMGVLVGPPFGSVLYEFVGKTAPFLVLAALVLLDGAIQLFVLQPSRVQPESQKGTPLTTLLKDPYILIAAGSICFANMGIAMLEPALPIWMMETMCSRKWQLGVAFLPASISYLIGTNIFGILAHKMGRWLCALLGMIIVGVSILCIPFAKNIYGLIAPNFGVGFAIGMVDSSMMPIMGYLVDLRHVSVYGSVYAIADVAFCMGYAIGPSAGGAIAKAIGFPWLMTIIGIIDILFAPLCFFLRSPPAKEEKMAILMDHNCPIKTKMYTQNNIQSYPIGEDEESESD
# Experimental: (§1) Valbenazine human plasma exposure metrics in patients were estimated with a population pharmacokinetic (PK) analysis and plasma protein binding (PPB) data. […] These steady-state concentrations, in conjunction with free EC50 from NHP PET for blocking compounds was used to estimate %TO in humans. Plasma concentrations of NBI-750142 following 60 mg BID dose were estimated using plasma concentrations following a single oral dose of 60 mg NBI-750142 using the principle of superposition.
# [9] = target: T2, VMAT2; test: NHP [18F]AV-133 PET target occupancy; assay type: in vivo, cynomolgus macaques; conditions: for EC50: Emax model
# Experimental: Each NHP PET study enrolled two to three cynomolgus macaques, (3.8–9 year age range).
# NHPs fasted overnight before individual PET scans. For the NBI-750142 study, 60 min prior to NBI-750142 or vehicle administration, animals were sedated with an intramuscular injection of 2 mg/kg Aflaxan, 0.02 mg/kg dexmedetomidine, and 0.3 mg/kg midazolam. The animals were intubated with an endotracheal tube for continued delivery of oxygen (1.5–2.5 L) and 1.0–2.5% isoflurane for anesthesia maintenance.
# The animals were intubated with an endotracheal tube for continued delivery of isoflurane for anesthesia maintenance.
# For all NHP PET scans, blocking compound was administered with a bolus loading dose, followed by constant intravenous infusion over 3 h, with the goal of achieving steady-state plasma exposure. One hour after blocking compound or vehicle administration, [^18F]AV-133 was administered as an intravenous bolus. Dynamic PET data were acquired with a MicroPET Focus-220 camera (Siemens Microsystems, Knoxville, TN) for 120 min post injection and reconstructed into a series of 33 frames and all standard corrections were applied for normalization, randoms, scatter, and attenuation. Brain PET images were analyzed using PMOD software package v3.802 (PMOD Technologies, Zurich, Switzerland). […]
# During each scan, 1 mL whole blood PK samples were collected (in K2 EDTA tubes) at multiple time points. Blocking compound concentration in plasma samples were analyzed using validated LC-MS/MS bioanalytical methods. […] The average plasma concentration, Cave, was calculated as the mean compound concentration of samples collected during the PET scan and used for PK-TO analysis.
# Time-activity curves were generated for the caudate, putamen, and cerebellum. Non-displaceable binding potential (BPND) was estimated using non-invasive Logan graphical analysis with cerebellum as reference region. %TO of the blocking compound was calculated in the caudate and putamen using baseline and post-dose BPND as follows:1 %TO=1−BPNDpost−block/BPNDbaselinex100 […]
# Target sequence in this assay (A0A2K5UVB8 entry or part of it): as the sequence (A0A2K5UVB8 1-517) above
# [10] = Plasma protein binding by equilibrium dialysis, human plasma; assay type: in vitro ADME, humans; conditions: both sexes, pooled plasma, read-out: fraction unbound in plasma (fu_p)
# [11] = target: T2, VMAT2; test: In vitro Ki for affinity to VMAT2, NHP; assay type: binding
# Target sequence in this assay (A0A2K5UVB8 1-517): as above
# [12] = target: T3, VMAT2; test: In vitro Ki for affinity to VMAT2, human; assay type: binding
# Text: Ki values for compound affinity to VMAT2 were generated from human platelet homogenates as described in [18].
# [13] = Human steady-state plasma exposure (population PK / superposition); assay type: in vivo; conditions: 60 mg NBI-750142 BID
# Experimental: as §1
# [14] = target: T3, VMAT2; test: Human [18F]AV-133 PET target occupancy; assay type: in vivo; set-up: from tissue; host or cells: brain of healthy male volunteers (caudate, putamen); conditions: for URF (upregulation factor): upregulation model
# Text: The human PET study was approved by the IRB (Approval number: Pro00037529). All participants gave their written informed consent prior to participation in the study. Twelve healthy male subjects were enrolled in cohorts of 2–4 subjects each. Subjects were 29–54 years of age (mean of 43.2 years), and the study had standard inclusion/exclusion criteria, with attention to avoiding drugs which may interfere with the [^18F]AV-133 measurements or with NBI-750142 metabolism.
# Subjects fasted during the study and received a small, predefined snack at least 2 h prior to oral dosing of NBI-750142. Consumption of alcohol, caffeine, nicotine or cannabis products, and grapefruit or grapefruit juice was prohibited during the study. One PET scan occurred ~1.5 h following administration of NBI-750142, and a second ~18 h post NBI-750142. These scans are referred to as “T1” and “T2,” respectively, throughout this study (Supplementary Fig. 1). T1 scans were timed to occur at approximately the time to reach maximal plasma concentration, Tmax, and provide the closest comparison to the NHP PET measurements. T2 scans should contribute data points to the lower NBI-750142 concentration portion of the PK-%TO curve and potentially reveal dose-response hysteresis (reviewed in ref. [22]). A total of five cohorts were enrolled in the study in an adaptive design, with two subjects enrolled in each cohort, except for four subjects in cohort 5. NBI-750142 doses in these cohorts ranged from 10 to 200 mg. Blood samples were obtained from each participant immediately before [^18F]AV-133 injection and just before the end of the PET scan in order to quantify plasma concentration of NBI-750142. The Cave derived from these two values was used to compare against %TO.
# Prior to the radiotracer injection and PET, a low-dose CT scan was collected for attenuation correction. Subjects were administered a single dose of [^18F]AV-133 intravenously over 3 min using an infusion pump (~3.33 mL per min) through a venous catheter followed by a 10 mL saline flush. Dynamic PET imaging of the brain was acquired over 120 min following radiotracer injection on a Siemens Biograph 6 PET/CT camera with the following frame times: 6 × 30 s, 4 × 1 min, 4 × 2 min, 21 × 5 min (0–120 min). Images were reconstructed with a 168 × 168 × 81 matrix (pixel size of 2.03 mm × 2.03 mm) using an iterative reconstruction algorithm (OSEM 4 iterations, 16 subsets) and a post hoc Gaussian filter FWHM = 3 mm. Standard corrections for random, scatter, system dead time, and attenuation provided by the camera manufacturer were performed. A T1 MRI scan was acquired from eligible subjects as part of the screening visit, to identify and delineate brain anatomical regions of interest for individual PET images. MRI scans were obtained on a Siemens Espree 1.5 Tesla clinical magnet.
# Reconstructed PET images were motion and decay corrected, realigned to the subject MRI and subsequently normalized into standard MNI (Montreal Neurological Institute) space using PMOD. Volumes of interest (VOIs) were defined from a template (Hammers, N30R83). Average activity concentration within each VOI was determined and time activity curves (TACs) were generated. TACs were extracted from the following VOIs: caudate and putamen (striatum), and occipital cortex. BPND, the primary outcome measure, was estimated with noninvasive Logan graphical analysis […] 1. The relationship between %TO (averaged between caudate and putamen) and average plasma concentration during the scan was analyzed with an Emax model (Eq. 2) and an upregulation model (Eq. 4), which incorporates an upregulation factor (URF; [24]).4 %TO=Drug−EC50Drug/Drug+EC50(URF−1)/Drug+EC50
# [15] = target: T2, VMAT2; test: [18F]AV-133 baseline PET test-retest; assay type: in vivo, cynomolgus macaques; conditions: 2 NHPs, caudate and putamen, baseline scans ~5 months apart
# Experimental: Test-retest variability of BPND in the caudate and putamen were calculated as3 TRTV%=100xBPND1−BPND2/(BPND1+BPND2)/2
# Target sequence in this assay (A0A2K5UVB8 entry or part of it): as the sequence (A0A2K5UVB8 1-517) above
# [16] = 40 mg VBZ QD, from free NBI-98782 and NHP PET EC50
# [17] = 80 mg VBZ QD, from free NBI-98782 and NHP PET EC50
# [18] = estimated from single 60 mg oral dose by superposition
# [19] = 60 mg NBI-750142 BID, NHP PET free EC50 6.7 ng/mL
smiles,measurement,setting,value
"COc1cc2c(cc1OC)C1CC(O)C(CC(C)C)CN1CC2 (stereo not drawn) [NBI-98782, (+)-α-dHTBZ (dihydrotetrabenazine)]",fraction unbound,[1],0.4
same,"NBI-98782 PK-%TO relationship, valbenazine-dosed vs NBI-98782-dosed rats",[2],nearly identical
same,ED50 (dose vs VMAT2 occupancy),[3],0.055 mg/kg
same,potency at VMAT2,[4],nanomolar potency
same,inhibition of other targets,[5],minimal to non-detectable inhibition
COc1cc2c(cc1OC)[C@H]1C[C@@H](OC(=O)[C@@H](N)C(C)C)[C@H](CC(C)C)CN1CC2 [valbenazine],"Cohen's d, AIMS score reduction",[6]; valbenazine 40 mg once daily oral,0.5
same,patients with robust AIMS response (>50% reduction from baseline),[6]; valbenazine 40 mg,24%
same,"Cohen's d, AIMS score reduction",[6]; valbenazine 80 mg once daily oral,0.9
same,patients with robust AIMS response (>50% reduction from baseline),[6]; valbenazine 80 mg,40%
same,"Cohen's d, chorea",[7],0.9
same,potency at VMAT2 relative to NBI-98782 (fold less potent),[4]; parent compound vs active metabolite,~ 40 fold
same,VMAT2 %TO at Cavg,[8]; [16],~ 80%
same,VMAT2 %TO at Cmax,[8]; [16],82%
same,VMAT2 %TO at Ctrough,[8]; [16],73%
same,VMAT2 %TO at Cavg,"[8]; 40 mg VBZ QD, from free NBI-98782 and NHP PET EC50, listed as VBZ",79%
same,VMAT2 %TO at Cavg,[8]; [17],89%
same,VMAT2 %TO at Cmax,[8]; [17],91%
same,VMAT2 %TO at Ctrough,[8]; [17],above 85%
same,VMAT2 %TO at Ctrough,"[8]; 80 mg VBZ QD, from free NBI-98782 and NHP PET EC50, listed as VBZ",85%
same,VMAT2 %TO estimations at steady state,"[8]; 80 mg valbenazine daily, Ctrough to Cmax",~ 90%
same,VMAT2 occupancy achieved by once daily valbenazine treatment,[8]; 40 and 80 mg once daily,80–90%
COc1cc2c(cc1OC)[C@H]1CN(C)[C@H](CC(C)(C)C)CN1CC2 [NBI-750142],EC50:Ki Ratio,"[9]; NHP, free PET EC50 over in vitro Ki",1.1
same,EC50,"[9]; total compound Cave during 120-min scan, read-out: EC50 (average total plasma concentration vs %TO) (converted)",33.1 nM
same,EC50,"[9]; total concentration multiplied by fu_p, read-out: free EC50 (free plasma concentration vs %TO) (converted)",20.2 nM
same,fraction unbound,[1],0.59
same,fraction unbound,[10],0.5
same,Ki,[11],18.3 nM
same,Ki,[12],27.7 nM
same,"Cavg, total",[13]; [18],27.7 ng/mL
same,"Cmax, total",[13]; [18],48.1 ng/mL
same,"Ctrough, total",[13]; [18],7.6 ng/mL
same,"Cavg, free",[13]; total x fu_p,13.9 ng/mL
same,"Cmax, free",[13]; total x fu_p,24.1 ng/mL
same,"Ctrough, free",[13]; total x fu_p,3.8 ng/mL
same,EC50:Ki Ratio,"[14]; Human, free PET EC50 over in vitro Ki",1.4
same,EC50,"[14]; T1 and T2, occipital cortex reference, read-out: EC50, Emax model (converted)",105 nM
same,URF (upregulation factor),"[14]; T1 and T2, white matter reference",1.9
same,EC50,"[14]; T1 and T2, white matter reference (post hoc), read-out: EC50, Emax model (converted)",93.2 nM
same,EC50,"[14]; T1 and T2, white matter reference (post hoc), read-out: EC50, upregulation model (converted)",33.1 nM
same,EC50,"[14]; T1 and T2 data, occipital cortex reference, read-out: EC50, upregulation model (converted)",18.9 nM
same,URF (upregulation factor),"[14]; T1 and T2 data, occipital cortex reference",2.8
same,EC50,"[14]; T1 scans (~[…] post oral dose), Emax model, occipital cortex reference, read-out: total EC50 (average total plasma concentration vs %TO) (converted)",75.8 nM
same,EC50,"[14]; T1 scans, Emax model, WM-derived BPND (post hoc), read-out: total EC50, white matter reference (converted)",74.6 nM
same,EC50,"[14]; T1 scans, Emax model, total concentration multiplied by fu_p, read-out: free EC50 (free plasma concentration vs %TO) (converted)",37.9 nM
same,VMAT2 occupancy at T2,"[14]; T2 scans ~18 h post NBI-750142, occipital cortex reference",negative occupancy
same,average striatal occupancy at T2,"[14]; T2 time points (~18 h post dose), WM-derived values",0.09%
same,VMAT2 %TO estimations,"[8]; 60 mg NBI-750142 BID (acceptable doses), Ctrough to Cmax",36–78%
same,VMAT2 %TO at Cavg,[8]; [19],67%
same,VMAT2 %TO at Cmax,[8]; [19],78%
same,VMAT2 %TO at Ctrough,[8]; [19],36%
COc1cc2c(cc1OCCC[18F])CCN1C[C@@H](CC(C)C)[C@H](O)C[C@H]21 [[^18F]AV-133],test-retest variability of baseline BPND,[15],< 10%
